Reference: ChEMBL document CHEMBL4837239, “Identification of Thieno[3,2-d]pyrimidine Derivatives as Dual Inhibitors of Focal Adhesion Kinase and FMS-like Tyrosine Kinase 3” (J Med Chem, 2021)
Calls of active or inactive are those of the source. No cut-off for these calls is given here.

Columns and labels:
Focal adhesion kinase 1 = Focal adhesion kinase 1 (Homo sapiens, UniProt Q05397); experiment: Inhibition of recombinant FAK (unknown origin) by radiometric kinase assay
HCT-116 = experiment: Antiproliferative activity against human HCT-116 cells assessed as growth inhibition measured after 72 hrs by CellTiter-Glo assay; assay type: functional
MDA-MB-231 = experiment: Antiproliferative activity against human MDA-MB-231 cells assessed as growth inhibition measured after 72 hrs by CellTiter-Glo assay; assay type: functional
[1] = (§1) Antiproliferative activity against human A375P cells assessed as growth inhibition measured after 72 hrs by CellTiter-Glo assay; assay type: functional
[2] = Metabolic stability in human liver microsomes assessed as compound remaining at 1 uM measured after 1 hr; assay type: ADME, Microsome; conditions: read-out: Stabilty
[3] = Inhibition of FLT3 D835Y (unknown origin); parameters: species or system Homo sapiens
BaF3 [4] = experiment: Antiproliferative activity against mouse Ba/F3 cells harbouring FLT3 ITD mutant assessed as growth inhibition measured after 72 hrs by CellTiter-Glo assay; assay type: functional
BaF3 [5] = experiment: Antiproliferative activity against mouse Ba/F3 cells harbouring FLT3 ITD D835Y mutant assessed as growth inhibition measured after 72 hrs by CellTiter-Glo assay; assay type: functional
BaF3 [6] = experiment: Antiproliferative activity against mouse Ba/F3 cells harbouring FLT3 D835Y mutant assessed as growth inhibition measured after 72 hrs by CellTiter-Glo assay; assay type: functional
BaF3 [7] = experiment: Antiproliferative activity against mouse Ba/F3 cells harbouring FLT3 ITD F691L mutant assessed as growth inhibition measured after 72 hrs by CellTiter-Glo assay; assay type: functional
BaF3 [8] = experiment: Antiproliferative activity against mouse Ba/F3 cells harbouring FLT3 ITD F691I mutant assessed as growth inhibition measured after 72 hrs by CellTiter-Glo assay; assay type: functional
BaF3 [9] = experiment: Antiproliferative activity against mouse Ba/F3 cells assessed as growth inhibition measured after 72 hrs by CellTiter-Glo assay; assay type: functional
CYP1A2 = molecular target: T1, CYP1A2 (Homo sapiens, UniProt P05177); experiment: Inhibition of CYP1A2 (unknown origin) at 10 uM relative to control; assay type: ADME
T1 sequence (P05177 whole entry): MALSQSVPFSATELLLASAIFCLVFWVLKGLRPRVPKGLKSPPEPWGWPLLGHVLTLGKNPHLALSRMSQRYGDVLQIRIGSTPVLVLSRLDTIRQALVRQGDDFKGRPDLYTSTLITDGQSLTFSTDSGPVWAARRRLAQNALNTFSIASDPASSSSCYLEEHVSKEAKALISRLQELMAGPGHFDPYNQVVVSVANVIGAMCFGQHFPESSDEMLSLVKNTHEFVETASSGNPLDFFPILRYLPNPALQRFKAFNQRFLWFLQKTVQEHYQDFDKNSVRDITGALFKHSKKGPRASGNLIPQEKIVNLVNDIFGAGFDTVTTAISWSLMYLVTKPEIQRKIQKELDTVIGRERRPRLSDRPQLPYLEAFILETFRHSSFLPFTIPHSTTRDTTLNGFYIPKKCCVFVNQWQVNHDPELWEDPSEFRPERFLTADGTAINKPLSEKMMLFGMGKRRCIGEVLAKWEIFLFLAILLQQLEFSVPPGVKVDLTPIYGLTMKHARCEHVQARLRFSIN

CYP2C9 = CYP2C9 (Homo sapiens, UniProt P11712); experiment: Inhibition of CYP2C9 (unknown origin) at 10 uM relative to control; assay type: ADME
CYP2C19 = CYP2C19 (Homo sapiens, UniProt P33261); experiment: Inhibition of CYP2C19 (unknown origin) at 10 uM relative to control; assay type: ADME
CYP2D6 = CYP2D6 (Homo sapiens, UniProt P10635); experiment: Inhibition of CYP2D6 (unknown origin) at 10 uM relative to control; assay type: ADME
CYP3A4 = CYP3A4 (Homo sapiens, UniProt P08684); experiment: Inhibition of CYP3A4 (unknown origin) at 10 uM relative to control; assay type: ADME
A375P = experiment: as §1; assay type: functional

CYP2D6, sequence (P10635 whole entry): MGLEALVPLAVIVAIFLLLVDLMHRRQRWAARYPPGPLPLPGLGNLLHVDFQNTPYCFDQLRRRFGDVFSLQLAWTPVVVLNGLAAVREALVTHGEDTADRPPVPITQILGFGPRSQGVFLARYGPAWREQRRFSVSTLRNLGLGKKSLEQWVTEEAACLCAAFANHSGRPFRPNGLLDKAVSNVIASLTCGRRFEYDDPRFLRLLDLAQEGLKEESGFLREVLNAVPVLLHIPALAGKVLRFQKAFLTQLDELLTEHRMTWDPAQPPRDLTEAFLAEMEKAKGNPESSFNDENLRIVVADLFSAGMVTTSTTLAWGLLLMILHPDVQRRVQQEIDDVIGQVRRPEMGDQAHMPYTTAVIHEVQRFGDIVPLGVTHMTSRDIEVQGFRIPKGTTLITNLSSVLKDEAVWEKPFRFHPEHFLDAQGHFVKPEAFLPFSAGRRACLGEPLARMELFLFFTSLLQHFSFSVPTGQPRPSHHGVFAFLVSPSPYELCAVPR
CYP3A4, sequence (P08684 whole entry): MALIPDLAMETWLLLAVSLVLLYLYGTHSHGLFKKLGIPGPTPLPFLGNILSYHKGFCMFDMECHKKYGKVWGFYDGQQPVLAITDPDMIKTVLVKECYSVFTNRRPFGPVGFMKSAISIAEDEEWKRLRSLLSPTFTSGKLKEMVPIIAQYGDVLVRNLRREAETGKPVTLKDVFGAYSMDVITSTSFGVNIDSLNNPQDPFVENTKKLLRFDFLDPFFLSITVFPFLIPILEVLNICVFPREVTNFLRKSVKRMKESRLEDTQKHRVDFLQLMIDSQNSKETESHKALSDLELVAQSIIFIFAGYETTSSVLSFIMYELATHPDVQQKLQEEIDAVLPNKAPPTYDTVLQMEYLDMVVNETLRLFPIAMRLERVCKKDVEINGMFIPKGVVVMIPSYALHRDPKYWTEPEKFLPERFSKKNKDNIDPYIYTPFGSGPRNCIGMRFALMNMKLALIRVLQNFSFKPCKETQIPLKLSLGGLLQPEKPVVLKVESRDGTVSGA
CYP2C19, sequence (P33261 whole entry): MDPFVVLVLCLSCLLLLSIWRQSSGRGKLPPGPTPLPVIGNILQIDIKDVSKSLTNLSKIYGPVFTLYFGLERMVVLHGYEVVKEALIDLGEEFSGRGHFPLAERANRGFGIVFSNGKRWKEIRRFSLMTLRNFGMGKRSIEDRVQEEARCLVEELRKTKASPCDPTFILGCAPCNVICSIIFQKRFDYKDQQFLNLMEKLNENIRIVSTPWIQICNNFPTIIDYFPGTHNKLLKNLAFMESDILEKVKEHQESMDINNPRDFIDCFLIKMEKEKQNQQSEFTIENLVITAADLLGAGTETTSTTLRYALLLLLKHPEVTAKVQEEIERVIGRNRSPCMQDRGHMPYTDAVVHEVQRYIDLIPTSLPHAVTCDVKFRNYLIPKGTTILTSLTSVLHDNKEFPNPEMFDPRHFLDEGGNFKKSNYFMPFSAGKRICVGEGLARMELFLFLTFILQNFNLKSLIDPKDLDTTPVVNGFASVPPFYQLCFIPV
CYP2C9, sequence (P11712 whole entry): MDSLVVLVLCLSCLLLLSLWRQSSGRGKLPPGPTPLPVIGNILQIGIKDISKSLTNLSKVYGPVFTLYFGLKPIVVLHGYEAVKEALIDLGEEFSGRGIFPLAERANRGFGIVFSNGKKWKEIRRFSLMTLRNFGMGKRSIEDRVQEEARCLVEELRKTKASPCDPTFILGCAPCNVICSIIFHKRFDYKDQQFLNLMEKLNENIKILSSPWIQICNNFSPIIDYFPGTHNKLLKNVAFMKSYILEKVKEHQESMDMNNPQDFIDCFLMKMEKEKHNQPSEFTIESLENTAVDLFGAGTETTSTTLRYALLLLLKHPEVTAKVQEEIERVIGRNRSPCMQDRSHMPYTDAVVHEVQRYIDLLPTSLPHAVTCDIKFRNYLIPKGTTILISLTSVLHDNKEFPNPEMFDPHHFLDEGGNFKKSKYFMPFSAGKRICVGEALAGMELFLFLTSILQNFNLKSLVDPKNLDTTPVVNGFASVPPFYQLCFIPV
Focal adhesion kinase 1, sequence (Q05397 whole entry): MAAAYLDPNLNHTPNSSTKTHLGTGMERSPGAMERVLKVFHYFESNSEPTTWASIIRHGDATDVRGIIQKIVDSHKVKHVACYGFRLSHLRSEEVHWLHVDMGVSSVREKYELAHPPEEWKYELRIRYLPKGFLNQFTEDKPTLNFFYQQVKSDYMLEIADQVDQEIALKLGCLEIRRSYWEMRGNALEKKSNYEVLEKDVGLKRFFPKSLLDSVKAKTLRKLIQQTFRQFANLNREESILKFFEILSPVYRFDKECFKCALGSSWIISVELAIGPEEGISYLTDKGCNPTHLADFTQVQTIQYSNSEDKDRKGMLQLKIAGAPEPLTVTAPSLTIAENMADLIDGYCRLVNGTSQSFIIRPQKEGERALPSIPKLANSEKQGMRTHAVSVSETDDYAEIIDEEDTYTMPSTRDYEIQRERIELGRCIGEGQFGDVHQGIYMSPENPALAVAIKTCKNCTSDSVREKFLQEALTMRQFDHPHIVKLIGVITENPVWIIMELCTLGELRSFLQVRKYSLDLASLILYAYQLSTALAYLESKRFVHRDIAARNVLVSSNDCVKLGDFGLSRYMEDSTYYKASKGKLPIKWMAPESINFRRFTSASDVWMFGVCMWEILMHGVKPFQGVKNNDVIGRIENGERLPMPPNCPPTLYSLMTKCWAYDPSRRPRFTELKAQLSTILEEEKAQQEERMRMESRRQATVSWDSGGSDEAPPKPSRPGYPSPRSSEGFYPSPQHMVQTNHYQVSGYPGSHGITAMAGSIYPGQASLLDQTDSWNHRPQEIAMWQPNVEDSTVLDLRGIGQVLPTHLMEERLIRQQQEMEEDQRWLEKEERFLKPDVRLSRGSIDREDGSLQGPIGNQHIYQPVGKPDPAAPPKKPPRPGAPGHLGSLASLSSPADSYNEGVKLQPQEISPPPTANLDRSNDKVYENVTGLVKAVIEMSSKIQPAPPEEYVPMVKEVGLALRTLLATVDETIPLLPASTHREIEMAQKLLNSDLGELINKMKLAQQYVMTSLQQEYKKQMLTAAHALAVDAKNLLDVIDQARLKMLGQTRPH

Row | Compound | IC50 (Focal adhesion kinase 1) | GI50 (HCT-116; Homo sapiens, HCT-116) | GI50 (MDA-MB-231; Homo sapiens, MDA-MB-231) | GI50 ([1]; Homo sapiens, A375P) | remaining at 1 h, 1 µM [2] | IC50 [3] | GI50 (BaF3 [4]; Mus musculus, BaF3) | GI50 (BaF3 [5]; Mus musculus, BaF3) | GI50 (BaF3 [6]; Mus musculus, BaF3) | GI50 (BaF3 [7]; Mus musculus, BaF3) | GI50 (BaF3 [8]; Mus musculus, BaF3) | GI50 (BaF3 [9]; Mus musculus, BaF3) | inhibition at 10 µM (CYP1A2) | inhibition at 10 µM (CYP2C9) | inhibition at 10 µM (CYP2C19) | inhibition at 10 µM (CYP2D6) | inhibition at 10 µM (CYP3A4) | further results
1 | CCN1CCN(c2ccc(Nc3ncc4scc(-c5cccc(S(C)(=O)=O)c5)c4n3)cc2)CC1 | 18 nM | 510 nM | 520 nM | 640 nM | 55.5% | < 0.5 nM | 20.6 nM | 25.2 nM | 8.7 nM | 170 nM | 245 nM | 427 nM | – | – | – | – | – | –
2 | CCN1CCN(c2ccc(Nc3ncc4scc(-c5ccc6cc[nH]c6c5)c4n3)cc2)CC1 | 54 nM | 170 nM | 570 nM | 500 nM | 89.3% | < 0.5 nM | 20.8 nM | 32.3 nM | 6.2 nM | 57.7 nM | 142 nM | 647 nM | 67.3% | 91.7% | 76.5% | 89.4% | 76% | –
3 | CCN1CCN(c2ccc(Nc3ncc4scc(-c5cccc(N(C)S(C)(=O)=O)c5)c4n3)cc2)CC1 | 21 nM | 190 nM | 450 nM | 220 nM | 57.2% | < 0.5 nM | 31.7 nM | 14.3 nM | 53 nM | 117 nM | 301 nM | 695 nM | – | – | – | – | – | –
4 | CCOC(=O)c1ccccc1-c1csc2cnc(Nc3ccc(N4CCN(CC)CC4)cc3)nc12 | 1650 nM | 31200 nM | 46200 nM | – | – | – | – | – | – | – | – | – | – | – | – | – | – | GI50 (A375P): inactive
5 | CNC(=O)c1ccccc1Nc1nc(Nc2ccc(N3CCOCC3)cc2OC)ncc1Cl | – | 270 nM | 1490 nM | 1690 nM | – | – | – | – | – | – | – | – | 73.3% | 27% | 50.5% | 83.2% | 71.2% | –
6 | CCN1CCN(c2ccc(Nc3ncc4scc(-c5cccc([N+](=O)[O-])c5)c4n3)cc2)CC1 | 21 nM | 110 nM | 260 nM | 500 nM | 73.1% | < 0.5 nM | 23.4 nM | 20.5 nM | 4 nM | 136 nM | 234 nM | 511 nM | 44.8% | 100% | 82.9% | 100% | 55.1% | –
7 | CS(=O)(=O)Nc1cccc(-c2csc3cnc(Nc4ccc(N5CCC(O)CC5)cc4)nc23)c1 | 16 nM | – | – | – | 54.8% | < 0.5 nM | – | – | – | – | – | – | 34.9% | – | 56.5% | 61.5% | 57.9% | GI50 (HCT-116): 520 nM; GI50 (MDA-MB-231): 440 nM; GI50 [1]: 1930 nM; GI50 (BaF3 [4]): 14.5 nM; GI50 (BaF3 [5]): 14 nM; GI50 (BaF3 [6]): 23 nM; GI50 (BaF3 [7]): 299 nM; GI50 (BaF3 [8]): 587 nM; GI50 (BaF3 [9]): 600 nM
8 | CCc1nc(C(N)=O)c(Nc2ccc(N3CCC(N4CCN(C)CC4)CC3)c(OC)c2)nc1NC1CCOCC1 [GILTERITINIB] | – | – | – | – | – | – | – | 5 nM | 2 nM | 82.8 nM | 259 nM | – | – | – | – | – | – | –
9 | CCN1CCN(c2ccc(Nc3ncc4scc(-c5cccc(N6CCCS6(=O)=O)c5)c4n3)cc2)CC1 | 33 nM | 340 nM | 530 nM | 410 nM | 73.4% | < 0.5 nM | 46.3 nM | 23.2 nM | 9.4 nM | 223 nM | 568 nM | 371 nM | 67.9% | 74.1% | 75.7% | 91.3% | 59.6% | –
